Experimental data published in US12516049B2, “Sulfonylurea ring substituted monocyclic β-lactam antibiotics” (priority 2019, dated 2026).

Experiments:
Format in all cases: cell-based
[1] = tested on: E.coli 020028; assay: MIC, two-fold agar dilution, clinical isolate; conditions: Escherichia coli, single drug, average of three tests
Experimental: (§1) The minimum inhibitory concentration (MIC) of the compound and combination with β-lactamase (MBLs) inhibitors against clinically isolated carbapenem-resistant enterobacteriaceae was determined by the two-fold agar dilution method to determine the activity of the compound to be tested against strains producing MBLs. Antibiotics and enzyme inhibitors were weighed separately and dissolved in sterile ultrapure water or dimethyl sulfoxide to prepare mother liquor, MHA medium was prepared, pH was adjusted to 7.2-7.4, and it was sterilized at 121° C. for 15 minutes and placed in a 55° C. water bath for heat preservation. The mother liquor was diluted to the concentration to be tested by double dilution method, an inoculum liquid was prepared by direct bacterial suspension method, 1 mL of the prepared bacteria solution was withdrawn and putted into the inoculation tube, and a positioning needle and an inoculation needle were installed. A bacterial multi-point inoculator was started for inoculation. After the bacterial solution was absorbed by the agar, the plate was placed upside down in an incubator at 37° C. for 16-20 hours, and the results were observed. The average of three tests was taken.

[2] = tested on: E.coli 020031; assay: MIC, two-fold agar dilution, clinical isolate; conditions: Escherichia coli, single drug, average of three tests
Experimental: as §1

[3] = tested on: E.coli 020033; assay: MIC, two-fold agar dilution, clinical isolate; conditions: Escherichia coli, single drug, average of three tests
Experimental: as §1

[4] = tested on: E.coli 115103; assay: MIC, two-fold agar dilution, clinical isolate; conditions: Escherichia coli; E.coli 115103; single drug; average of three tests; read-out: MIC
Experimental: as §1

[5] = tested on: E.coli BAA-2452; assay: MIC, two-fold agar dilution, clinical isolate; conditions: Escherichia coli, BAA2452; E.coli BAA-2452; single drug; average of three tests; read-out: MIC
Experimental: as §1

[6] = tested on: E.coli C1569; assay: MIC, two-fold agar dilution, clinical isolate; conditions: Escherichia coli, single drug, average of three tests
Experimental: as §1

[7] = tested on: E.coli CRE18; assay: MIC, two-fold agar dilution, clinical isolate; conditions: Escherichia coli; E.coli CRE18; single drug; average of three tests; read-out: MIC
Experimental: as §1

[8] = tested on: E.coli CRE21; assay: MIC, two-fold agar dilution, clinical isolate; conditions: Escherichia coli; E.coli CRE21; single drug; average of three tests; read-out: MIC
Experimental: as §1

[9] = tested on: E.coli CRE23; assay: MIC, two-fold agar dilution, clinical isolate; conditions: Escherichia coli; E.coli CRE23; single drug; average of three tests; read-out: MIC
Experimental: as §1

[10] = tested on: E.coli CRE28; assay: MIC, two-fold agar dilution, clinical isolate; conditions: Escherichia coli; E.coli CRE28; single drug; average of three tests; read-out: MIC
Experimental: as §1

[11] = tested on: K.p 090339; assay: MIC, two-fold agar dilution, clinical isolate; conditions: K.p 090339; single drug; average of three tests; read-out: MIC
Experimental: as §1

[12] = tested on: K.p 115004; assay: MIC, two-fold agar dilution, clinical isolate; conditions: K.p 115004; single drug; average of three tests; read-out: MIC
Experimental: as §1

[13] = tested on: K.p 11544; assay: MIC, two-fold agar dilution, clinical isolate; conditions: K.p 11544; single drug; average of three tests; read-out: MIC
Experimental: as §1

[14] = tested on: K.p 13249; assay: MIC, two-fold agar dilution, clinical isolate; conditions: K.p 13249; single drug; average of three tests; read-out: MIC
Experimental: as §1

[15] = tested on: K.p 6777; assay: MIC, two-fold agar dilution, clinical isolate; conditions: K.p 6777; single drug; average of three tests; read-out: MIC
Experimental: as §1

[16] = tested on: K.p BAA-2470; assay: MIC, two-fold agar dilution, clinical isolate; conditions: K.p BAA-2470; single drug; average of three tests; read-out: MIC
Experimental: as §1

[17] = tested on: K.p C904; assay: MIC, two-fold agar dilution, clinical isolate; conditions: K.p C904; single drug; average of three tests; read-out: MIC
Experimental: as §1

[18] = tested on: K.p CRE11; assay: MIC, two-fold agar dilution, clinical isolate; conditions: K.p CRE11; single drug; average of three tests; read-out: MIC
Experimental: as §1

[19] = tested on: K.p CRE12; assay: MIC, two-fold agar dilution, clinical isolate; conditions: single drug, average of three tests
Experimental: as §1

[20] = tested on: K.p CRE16; assay: MIC, two-fold agar dilution, clinical isolate; conditions: single drug, average of three tests
Experimental: as §1

[21] = tested on: K.p HX37; assay: MIC, two-fold agar dilution, clinical isolate; conditions: K.p HX37; single drug; average of three tests; read-out: MIC
Experimental: as §1

[22] = tested on: K.p HX77; assay: MIC, two-fold agar dilution, clinical isolate; conditions: single drug, average of three tests
Experimental: as §1

[23] = tested on: Morganella morganii C1274; assay: MIC, two-fold agar dilution, clinical isolate; conditions: Morganella morganii C1274; single drug; average of three tests; read-out: MIC
Experimental: as §1

[24] = tested on: E.coli 115101; assay: MIC, two-fold agar dilution, clinical isolate; conditions: Escherichia coli; E.coli 115101; single drug; average of three tests; read-out: MIC
Experimental: as §1, with “Antibiotics and enzyme inhibitors were weighed separately and dissolved in sterile ultrapure water or dimethyl sulfoxide to prepare mother liquor, MHA medium was prepared, pH was adjusted to 7.2-7.4, and it was sterilized at 121° C. for 15 minutes and placed in a 55° C. water bath for heat preservation.” left out

[25] = tested on: E.coli 115105; assay: MIC, two-fold agar dilution, clinical isolate; conditions: Escherichia coli, single drug, average of three tests
Experimental: as §1, with “Antibiotics and enzyme inhibitors were weighed separately and dissolved in sterile ultrapure water or dimethyl sulfoxide to prepare mother liquor, MHA medium was prepared, pH was adjusted to 7.2-7.4, and it was sterilized at 121° C. for 15 minutes and placed in a 55° C. water bath for heat preservation.” left out

[26] = tested on: K.p HX30; assay: MIC, two-fold agar dilution, clinical isolate; conditions: K.p HX30; single drug; average of three tests; read-out: MIC
Experimental: as §1, with “Antibiotics and enzyme inhibitors were weighed separately and dissolved in sterile ultrapure water or dimethyl sulfoxide to prepare mother liquor, MHA medium was prepared, pH was adjusted to 7.2-7.4, and it was sterilized at 121° C. for 15 minutes and placed in a 55° C. water bath for heat preservation.” left out

[27] = tested on: clinically isolated carbapenem-resistant enterobacteriaceae; conditions: single drug; panel of 26 strains of Table 2
Experimental: as §1, with “Antibiotics and enzyme inhibitors were weighed separately and dissolved in sterile ultrapure water or dimethyl sulfoxide to prepare mother liquor, MHA medium was prepared, pH was adjusted to 7.2-7.4, and it was sterilized at 121° C. for 15 minutes and placed in a 55° C. water bath for heat preservation.” left out

Nc1nc(/C(=N/OC2(C(=O)O)CC2)C(=O)N[C@@H]2C(=O)N(S(=O)(=O)O)[C@@H]2CN2CCOC2=O)cs1 [LYS 228]
MIC [1]: 0.125 µg/mL
MIC [2]: 4 µg/mL
MIC [3]: 8 µg/mL
MIC [4]: 8 µg/mL
MIC [5]: 0.5 µg/mL
MIC [6]: 4 µg/mL
MIC [7]: 4 µg/mL
MIC [8]: 4 µg/mL
MIC [9]: 2 µg/mL
MIC [10]: 4 µg/mL
MIC [11]: 0.25 µg/mL
MIC [12]: 0.25 µg/mL
MIC [13]: 0.125 µg/mL
MIC [14]: 0.125 µg/mL
MIC [15]: 1 µg/mL
MIC [16]: 0.25 µg/mL
MIC [17]: 0.125 µg/mL
MIC [18]: 0.125 µg/mL
MIC [19]: 0.125 µg/mL
MIC [20]: 0.06 µg/mL
MIC [21]: 0.5 µg/mL
MIC [22]: 0.03 µg/mL
MIC [23]: 0.25 µg/mL
MIC [24]: 4 µg/mL
MIC [25]: 4 µg/mL
MIC [26]: 2 µg/mL
MIC50 [27]: 0.5 µg/mL
MIC90 [27]: 4 µg/mL

C[C@@H](O)[C@H]1C(=O)N2C(C(=O)O)=C(S[C@@H]3CN[C@H](C(=O)N(C)C)C3)[C@H](C)[C@H]12 [Meropenem]
MIC [1]: 16 µg/mL
MIC [2]: 32 µg/mL
MIC [3]: 32 µg/mL
MIC [4]: 16 µg/mL
MIC [5]: 16 µg/mL
MIC [6]: 16 µg/mL
MIC [7]: 32 µg/mL
MIC [8]: 64 µg/mL
MIC [9]: 32 µg/mL
MIC [10]: 32 µg/mL
MIC [11]: 16 µg/mL
MIC [12]: 16 µg/mL
MIC [13]: 16 µg/mL
MIC [14]: 32 µg/mL
MIC [15]: 8 µg/mL
MIC [16]: 32 µg/mL
MIC [17]: 16 µg/mL
MIC [18]: 32 µg/mL
MIC [19]: 16 µg/mL
MIC [20]: 8 µg/mL
MIC [21]: 32 µg/mL
MIC [22]: 16 µg/mL
MIC [23]: 2 µg/mL
MIC50 [27]: 16 µg/mL
